Values joined by “and” are separate entries in the source; they are usually repeats but may differ in a detail not shown here. Equal entries are not always repeated. Marks after values point to notes of the source that are not given here.
Columns and labels:
[1] = In vitro degradation assay in 0.01 M PBS buffer solution; assay type: physicochemical
Description: In order to determine the degradation of the compounds in PBS buffer solution, the compounds DSR1˜6 were dissolved in 0.01 M PBS buffer solution, and were sampled every 30 min.

[2] = system: human colon cancer HCT-116; assay: Xenografted tumor of human colon cancer HCT-116 in nude mice; assay type: in vivo, BALB/cA nude mice; details: 45 mg/kg, qw × 3w, iv
Description: The diameter of subcutaneously xenografted tumor of the nude mice was measured by the caliper.

human colon cancer HT-29 = assay: Xenografted tumor of human colon cancer HT-29 in nude mice; assay type: in vivo, BALB/cA nude mice; details: 45 mg/kg, qw × 3w, iv
human lung cancer A549 = assay: Xenografted tumor of human lung cancer A549 in nude mice; assay type: in vivo, BALB/cA nude mice; details: 45 mg/kg, qw × 3w, iv
[3] = system: human ovarian cancer SKOV-3; assay: Xenografted tumor of human ovarian cancer SKOV-3 in nude mice; assay type: in vivo, BALB/cA nude mice; details: 45 mg/kg, qw × 3w, iv
[4] = system: human colon cancer SW-620; assay: Xenografted tumor of human colon cancer SW-620 in nude mice; details: 45 mg/kg, qw × 3w, iv
[5] = system: K562 human chronic myelogenous leukemia; assay: Subcutaneous tumor model of K562 human chronic myelogenous leukemia; assay type: in vivo, NOD/SCID mice; details: 5 mg/kg; for Relative tumor volume (x ± SE) / Tumor volume (x ± SE): intravenous twice a week
Description: K562 cells were subcutaneously inoculated at the back of NOD/SCID mice right side so as to establish a subcutaneous xenograft animal model of human chronic myelogenous leukemia. When the average tumor volume reached 130 mm^3, the experiment mice were divided to different groups, with 8 mice for each group, and the drugs were administrated by intravenous injections twice a week. The effect was evaluated based on relative tumor proliferation ratio (T/C %).
Tumor cells were routinely passaged twice a week. Tumor cells in exponential growth phase were collected, then suspended in a mixture of PBS: matrigel with equal volume ratio and placed on ice for tumor inoculation.
5×10^6 K562 cells were subcutaneously inoculated at the back of experiment mice right side. The mice were monitored at regular intervals for the tumor growth. When tumor grew to average 130 mm^3, the mice were divided to groups randomly according to tumor volume and mouse body weight, and were administrated.
(§1) All of the operations relevant to operation, nursing and treatment in this investigation were conducted according to guidelines approved by Association for Assessment and Accreditation of Laboratory Animal Care (AAALAC). After the incoluation, the incidence of disease and death of animals were observed every day. In the process of daily observation, the effects of tumor growth on normal behavior of animals (such as exercise, feeding, drinking, body weight change, eyes, hair) as well as any other abnormality were attentively monitored. Death and clinical symptom were recorded for animals in each group.
The calculation formula for tumor volume is as follows: tumor volume (mm^3)=0.5×(long diameter of the tumor×short diameter of the tumor^2). RTV and T/C ratios were calculated according to the tumor volumes of the treatment groups and the control group. RTV refers to relative tumor volume. T/C ratio refers to the percentage value of the average tumor volumes between the treatment groups and the control group at a time point after the treatment, which reflects the anti-tumor effects of different treatment groups.
All the experiment results were expressed as the average tumor volume±SE (standard error). For statistical analysis, since the variances of relative tumor volume data were different, one-way analysis of variance (one-way ANOVA) and Dunnett T3 method for multiple comparisons were used to compare significant difference of relative tumor volumes between the groups. p<0.05 indicated the significant difference.

[6] = system: PC-3 human prostate cancer; assay: Subcutaneous tumor model of PC-3 human prostate cancer; assay type: in vivo, Balb/c nude mouse; details: 10 mg/kg
Description: PC-3 cells were subcutaneously inoculated at the right side on the back of Balb/c nude mouse so as to establish a subcutaneous xenograft animal model of human prostate cancer. When the average tumor volume reached 160 mm^3, the experiment mice were divided to different groups, with 8 mice for each group, and the drugs were administrated by intravenous injections twice a week. The therapeutic effect was evaluated based on relative tumor proliferation ratio (T/C %).
PC-3 cell line was cultured in vitro in Ham's F12K medium with supplement of 10% fetal calf serum and L-glutamine (2 mM) at 37° C. in an atmosphere with 5% CO2 for the tumor cells culture. The tumor cells were routinely passaged twice a week. Tumor cells in exponential growth phase were collected, then were suspended in a mixture of PBS: matrigel with equal volume ratio and were placed on ice for tumor inoculation.
5×10^6 PC-3 cells were subcutaneously inoculated at the right side on the back of experiment mice. The mice were monitored at regular intervals for the tumor growth. When tumor grew to average 160 mm^3, the mice were divided to groups randomly according to the tumor volume and the mouse body weight, and were administrated.
as §1
The calculation formula for tumor volume is as follows: tumor volume (mm^3)=0.5×(long diameter of the tumor×short diameter of the tumor^2). RTV and T/C ratios were calculated according to the tumor volumes of the treatment groups and the control group. RTV refers to relative tumor volume. T/C ratio refers to the percentage value of the relative tumor volumes of the treatment groups and the control group at a time point after the treatment, which reflects the anti-tumor effects of different treatment groups. At the end of the experiment, the pictures of the tumors were recorded according to the following two methods: 1. after euthanatized by CO2, the animals in each group were placed with tumor-bearing side up, and the pictures were taken and recorded respectively for each group; 2. after the tumor was removed, the tumor weight was weighed first. T/C (percentage value of the tumor weight between the treatment group and the control group) was calculated, and then the tumors from each group were placed in order. The pictures of the tumors were taken and recorded.
All the experiment results were expressed as average tumor volume±SE (standard error). For statistical analysis, one-way analysis of variance (one-way ANOVA) and LSD multiple comparisons method were used for the relative tumor volume data, comparing the significant difference of the relative tumor volumes between the groups. p<0.05 indicates the significant difference.

[7] = intravenous twice a week, 22nd day after grouping

conjugate of methoxy PEG dipeptide of glutamic acid and glycine (20K)-dasatinib [DSR-2]
degradation ([1]; at 90 min): 50%

conjugate of methoxy PEG dipeptide of glutamic acid and glycine (number-average molecular weight of 20,000)-irinotecan [YNR-1]
RTV (mean ± SD) [2]: 1.78 ± 0.23**^,##
T/C [2]: 27.60%
TV (mean ± SD) d0 ([2]; d0): 132 ± 30 mm^3
TV (mean ± SD) d28 ([2]; d28): 234 ± 54 mm^3
RTV (mean ± SD) (human colon cancer HT-29): 5.71 ± 1.21
T/C (human colon cancer HT-29): 41.08%
TV (mean ± SD) d0 (human colon cancer HT-29; d0): 115 ± 25 mm^3
TV (mean ± SD) d28 (human colon cancer HT-29; d28): 642 ± 105 mm^3
RTV (mean ± SD) (human lung cancer A549): 2.97 ± 1.04*^,#
T/C (human lung cancer A549): 20.62%
TV (mean ± SD) d0 (human lung cancer A549; d0): 105 ± 21 mm^3
TV (mean ± SD) d28 (human lung cancer A549; d28): 320 ± 154 mm^3
RTV (mean ± SD) [3]: 0.07 ± 0.01*^,#
T/C [3]: 0.53%
TV (mean ± SD) d0 ([3]; d0): 135 ± 35 mm^3
TV (mean ± SD) d28 ([3]; d28): 1.27 ± 1.98 mm^3
number of animals with vanished tumor ([3]; d28, 6 mice per group): 4
RTV (mean ± SD) [4]: 0.003 ± 0.002**^,#
T/C [4]: 0.02%
TV (mean ± SD) d0 ([4]; d0): 130 ± 43 mm^3
TV (mean ± SD) d28 ([4]; d28): 0.37 ± 0.29 mm^3
number of animals with vanished tumor ([4]; d28, 6 mice per group): 2

conjugate of methoxy PEG dipeptide acid of glutamic acid (20K)-dasatinib [DSR-1]
degradation ([1]; at 60 min): 60%

conjugate of methoxy PEG dipeptide of glutamic acid alanine (20K)-dasatinib [DSR-3]
degradation ([1]; at 150 min): 50%

conjugate of methoxy PEG glutamic acid dipeptide valine (20K)-dasatinib [DSR-4]
degradation ([1]; at 240 min): 20%
T/C (relative tumor proliferation ratio) ([5]; 14th day after the grouping, compared with the solvent control group): 1.6%
T/C (relative tumor proliferation ratio) ([5]; 21st day after grouping, compared with the dasatinib group): 45%
Relative tumor volume (x ± SE) ([5]; 14th day after the grouping): 29.1 ± 4.8
Tumor volume (x ± SE) ([5]; 14th day after the grouping): 39.2 mm^3 and 39.2 ± 6 mm^3
Relative tumor volume (x ± SE) ([5]; 21st day after grouping): 130 ± 28
Tumor volume (x ± SE) ([5]; 21st day after grouping): 176 mm^3 and 176 ± 59 mm^3
T/C (relative tumor proliferation ratio) ([6]; 22nd day after grouping, compared with the solvent control group): 47%
T/C (relative tumor proliferation ratio) ([6]; 25th day after grouping, compared with the dasatinib group): 61%
Relative tumor volume (x ± SE) [6, 7]: 745.9 ± 54.4
Tumor volume (x ± SE) [6, 7]: 1187 mm^3 and 1187 ± 67 mm^3
Relative tumor volume (x ± SE) ([6]; intravenous twice a week, 25th day after grouping): 751.9 ± 78.9
